Assay results taken from ChEMBL document CHEMBL5291721, “A preclinical secondary pharmacology resource illuminates target-adverse drug reaction associations of marketed drugs” (Nat Commun, 2023).

Tests used:
Bile salt export pump = Bile salt export pump (Homo sapiens, UniProt O95342); type: functional
[1] = biological target: T1, Muscarinic acetylcholine receptor M2 (Homo sapiens, UniProt P08172)
T1 sequence (P08172 whole entry): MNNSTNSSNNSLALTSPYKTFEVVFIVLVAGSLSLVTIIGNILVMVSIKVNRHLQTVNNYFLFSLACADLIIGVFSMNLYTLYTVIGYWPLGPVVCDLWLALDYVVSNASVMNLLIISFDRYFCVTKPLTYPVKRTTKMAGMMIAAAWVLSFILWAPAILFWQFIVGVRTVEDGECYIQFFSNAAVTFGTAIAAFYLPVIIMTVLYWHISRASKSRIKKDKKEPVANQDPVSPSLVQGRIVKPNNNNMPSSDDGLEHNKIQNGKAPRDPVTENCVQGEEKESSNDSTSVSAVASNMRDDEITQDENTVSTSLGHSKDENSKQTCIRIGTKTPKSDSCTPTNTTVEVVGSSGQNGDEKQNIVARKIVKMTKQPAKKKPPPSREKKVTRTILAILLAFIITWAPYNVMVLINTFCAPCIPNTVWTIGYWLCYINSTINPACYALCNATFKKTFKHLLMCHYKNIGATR

Histamine H3 receptor = Histamine H3 receptor (Homo sapiens, UniProt Q9Y5N1)
[2] = biological target: T2, 5-hydroxytryptamine receptor 1A (Homo sapiens, UniProt P08908)
T2 sequence (P08908 whole entry): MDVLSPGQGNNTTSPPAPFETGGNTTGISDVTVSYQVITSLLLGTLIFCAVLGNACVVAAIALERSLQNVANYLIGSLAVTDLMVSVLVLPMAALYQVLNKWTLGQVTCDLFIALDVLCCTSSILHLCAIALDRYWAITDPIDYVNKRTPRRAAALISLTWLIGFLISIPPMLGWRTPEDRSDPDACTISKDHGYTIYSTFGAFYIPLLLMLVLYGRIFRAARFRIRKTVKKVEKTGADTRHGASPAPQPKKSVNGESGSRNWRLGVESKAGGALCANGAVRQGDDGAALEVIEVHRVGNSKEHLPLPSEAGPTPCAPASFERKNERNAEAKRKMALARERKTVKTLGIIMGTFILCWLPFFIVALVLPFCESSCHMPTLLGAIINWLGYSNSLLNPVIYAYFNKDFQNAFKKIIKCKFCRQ

[3] = biological target: 5-hydroxytryptamine receptor 2B (Homo sapiens, UniProt P41595); type: functional, cell-based
Chain of 5-hydroxytryptamine receptor 2B (P41595 whole entry): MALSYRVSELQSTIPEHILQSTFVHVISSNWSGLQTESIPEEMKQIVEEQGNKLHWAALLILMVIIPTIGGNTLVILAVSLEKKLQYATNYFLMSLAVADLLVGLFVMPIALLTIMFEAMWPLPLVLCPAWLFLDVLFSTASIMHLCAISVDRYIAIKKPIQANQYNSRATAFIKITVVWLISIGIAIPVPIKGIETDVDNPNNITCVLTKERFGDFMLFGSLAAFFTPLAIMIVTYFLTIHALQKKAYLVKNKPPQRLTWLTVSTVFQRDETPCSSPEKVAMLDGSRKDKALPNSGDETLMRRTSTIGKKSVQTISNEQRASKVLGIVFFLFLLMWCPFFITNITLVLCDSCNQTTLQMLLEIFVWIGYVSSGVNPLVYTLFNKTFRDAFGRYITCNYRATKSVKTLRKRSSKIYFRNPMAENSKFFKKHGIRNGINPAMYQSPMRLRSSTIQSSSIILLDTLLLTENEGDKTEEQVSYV

[4] = biological target: Voltage-gated inwardly rectifying potassium channel KCNH2 (Homo sapiens, UniProt Q12809); type: functional
Chain of Voltage-gated inwardly rectifying potassium channel KCNH2 (Q12809 whole entry): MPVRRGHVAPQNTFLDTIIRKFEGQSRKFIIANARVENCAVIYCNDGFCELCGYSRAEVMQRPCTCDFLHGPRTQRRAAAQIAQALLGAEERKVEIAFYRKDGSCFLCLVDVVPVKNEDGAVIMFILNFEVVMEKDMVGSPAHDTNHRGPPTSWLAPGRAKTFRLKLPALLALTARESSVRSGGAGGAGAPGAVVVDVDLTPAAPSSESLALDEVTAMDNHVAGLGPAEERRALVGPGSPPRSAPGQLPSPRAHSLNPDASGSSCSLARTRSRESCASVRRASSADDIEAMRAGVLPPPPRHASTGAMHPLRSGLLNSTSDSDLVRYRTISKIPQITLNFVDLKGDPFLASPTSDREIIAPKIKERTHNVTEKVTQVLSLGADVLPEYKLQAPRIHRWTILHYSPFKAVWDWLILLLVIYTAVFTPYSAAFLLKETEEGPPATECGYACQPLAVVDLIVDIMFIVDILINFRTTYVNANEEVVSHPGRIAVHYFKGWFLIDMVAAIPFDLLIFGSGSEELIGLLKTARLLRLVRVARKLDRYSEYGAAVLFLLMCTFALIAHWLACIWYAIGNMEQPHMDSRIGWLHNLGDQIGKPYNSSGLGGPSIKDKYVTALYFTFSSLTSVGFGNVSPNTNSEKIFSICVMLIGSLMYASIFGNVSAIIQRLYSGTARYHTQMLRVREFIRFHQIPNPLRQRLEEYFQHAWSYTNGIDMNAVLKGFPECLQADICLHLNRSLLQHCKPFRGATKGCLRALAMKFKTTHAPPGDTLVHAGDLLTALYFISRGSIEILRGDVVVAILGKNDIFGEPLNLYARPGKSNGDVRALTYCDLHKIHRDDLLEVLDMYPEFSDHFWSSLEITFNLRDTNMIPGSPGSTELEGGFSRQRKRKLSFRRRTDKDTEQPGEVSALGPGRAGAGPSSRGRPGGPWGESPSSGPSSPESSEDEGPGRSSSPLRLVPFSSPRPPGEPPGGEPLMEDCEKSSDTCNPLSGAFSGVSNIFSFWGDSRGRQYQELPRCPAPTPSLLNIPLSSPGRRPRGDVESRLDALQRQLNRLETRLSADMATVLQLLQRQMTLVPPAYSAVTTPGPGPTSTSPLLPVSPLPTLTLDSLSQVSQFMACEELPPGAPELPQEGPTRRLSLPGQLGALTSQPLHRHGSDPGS

Mu-type opioid receptor = Mu-type opioid receptor (Homo sapiens, UniProt P35372)
Chain of Mu-type opioid receptor (P35372 whole entry): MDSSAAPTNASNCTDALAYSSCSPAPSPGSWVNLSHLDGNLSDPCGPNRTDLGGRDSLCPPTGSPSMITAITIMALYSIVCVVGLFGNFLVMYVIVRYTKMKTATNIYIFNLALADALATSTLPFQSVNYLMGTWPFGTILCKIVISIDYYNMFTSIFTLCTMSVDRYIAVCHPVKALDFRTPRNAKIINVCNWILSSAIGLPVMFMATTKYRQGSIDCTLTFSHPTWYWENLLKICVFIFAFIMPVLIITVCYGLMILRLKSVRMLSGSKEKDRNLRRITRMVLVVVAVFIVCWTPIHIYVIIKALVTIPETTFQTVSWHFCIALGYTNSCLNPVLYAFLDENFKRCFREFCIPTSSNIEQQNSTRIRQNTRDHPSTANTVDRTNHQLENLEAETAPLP

[5] = biological target: cGMP-inhibited 3',5'-cyclic phosphodiesterase 3A (Homo sapiens, UniProt Q14432); type: functional
Chain of cGMP-inhibited 3',5'-cyclic phosphodiesterase 3A (Q14432 whole entry): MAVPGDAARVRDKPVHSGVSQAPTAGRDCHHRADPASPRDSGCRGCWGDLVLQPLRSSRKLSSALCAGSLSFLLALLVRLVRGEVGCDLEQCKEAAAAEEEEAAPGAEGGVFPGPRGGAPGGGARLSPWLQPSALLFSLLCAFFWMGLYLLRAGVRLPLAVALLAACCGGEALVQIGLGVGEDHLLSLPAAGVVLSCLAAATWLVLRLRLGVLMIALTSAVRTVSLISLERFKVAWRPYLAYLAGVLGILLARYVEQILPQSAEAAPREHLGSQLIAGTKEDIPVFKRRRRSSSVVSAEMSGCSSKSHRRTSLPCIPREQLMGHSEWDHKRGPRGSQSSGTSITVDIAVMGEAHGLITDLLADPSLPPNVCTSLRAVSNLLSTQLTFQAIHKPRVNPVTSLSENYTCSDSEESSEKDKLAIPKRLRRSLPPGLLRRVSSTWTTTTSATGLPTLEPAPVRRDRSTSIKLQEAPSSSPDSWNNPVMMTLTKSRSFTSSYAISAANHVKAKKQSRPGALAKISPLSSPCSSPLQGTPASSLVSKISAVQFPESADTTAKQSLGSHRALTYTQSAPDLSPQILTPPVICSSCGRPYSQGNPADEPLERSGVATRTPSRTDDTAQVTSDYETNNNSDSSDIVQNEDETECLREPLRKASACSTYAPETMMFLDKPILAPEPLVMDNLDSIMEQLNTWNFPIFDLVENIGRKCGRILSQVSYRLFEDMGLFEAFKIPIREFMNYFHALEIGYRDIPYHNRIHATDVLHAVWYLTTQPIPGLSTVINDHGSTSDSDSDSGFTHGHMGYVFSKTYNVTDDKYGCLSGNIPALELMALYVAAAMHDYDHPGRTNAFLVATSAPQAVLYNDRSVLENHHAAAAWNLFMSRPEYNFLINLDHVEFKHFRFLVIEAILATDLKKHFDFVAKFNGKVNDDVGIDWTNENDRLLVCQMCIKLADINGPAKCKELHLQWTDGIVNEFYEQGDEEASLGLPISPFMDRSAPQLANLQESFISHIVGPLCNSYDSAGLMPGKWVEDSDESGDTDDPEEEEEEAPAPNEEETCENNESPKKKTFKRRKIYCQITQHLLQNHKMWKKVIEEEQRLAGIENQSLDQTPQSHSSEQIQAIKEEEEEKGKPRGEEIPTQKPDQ

Progesterone receptor = biological target: T3, Progesterone receptor (Homo sapiens, UniProt P06401)
T3 sequence (P06401 whole entry): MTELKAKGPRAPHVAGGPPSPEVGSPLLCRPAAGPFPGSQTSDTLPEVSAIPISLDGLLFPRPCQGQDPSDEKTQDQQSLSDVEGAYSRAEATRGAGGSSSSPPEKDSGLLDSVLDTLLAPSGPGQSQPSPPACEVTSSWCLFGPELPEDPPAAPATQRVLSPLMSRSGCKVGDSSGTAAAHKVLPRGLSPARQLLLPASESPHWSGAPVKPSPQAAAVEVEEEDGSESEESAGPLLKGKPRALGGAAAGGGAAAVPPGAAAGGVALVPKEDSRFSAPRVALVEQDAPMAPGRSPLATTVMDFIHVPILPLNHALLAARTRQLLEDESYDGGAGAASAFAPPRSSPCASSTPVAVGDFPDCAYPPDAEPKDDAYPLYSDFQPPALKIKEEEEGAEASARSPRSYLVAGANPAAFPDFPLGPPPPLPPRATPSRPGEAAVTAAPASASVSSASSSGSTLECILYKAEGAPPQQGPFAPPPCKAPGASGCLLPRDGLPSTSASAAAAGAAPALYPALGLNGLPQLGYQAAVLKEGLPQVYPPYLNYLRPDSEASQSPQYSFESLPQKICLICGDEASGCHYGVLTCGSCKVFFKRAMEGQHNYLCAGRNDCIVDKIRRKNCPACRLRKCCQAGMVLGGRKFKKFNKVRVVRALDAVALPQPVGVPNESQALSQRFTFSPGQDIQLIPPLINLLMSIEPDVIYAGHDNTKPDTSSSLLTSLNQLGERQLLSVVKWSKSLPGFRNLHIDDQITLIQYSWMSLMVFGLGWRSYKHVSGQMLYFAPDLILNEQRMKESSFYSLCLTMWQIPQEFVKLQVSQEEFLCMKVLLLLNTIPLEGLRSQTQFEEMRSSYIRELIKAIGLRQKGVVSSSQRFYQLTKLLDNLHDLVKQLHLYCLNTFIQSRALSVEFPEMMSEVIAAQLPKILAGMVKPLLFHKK

[6] = biological target: Prostaglandin G/H synthase 1 (Homo sapiens, UniProt P23219); type: functional
Chain of Prostaglandin G/H synthase 1 (P23219 whole entry): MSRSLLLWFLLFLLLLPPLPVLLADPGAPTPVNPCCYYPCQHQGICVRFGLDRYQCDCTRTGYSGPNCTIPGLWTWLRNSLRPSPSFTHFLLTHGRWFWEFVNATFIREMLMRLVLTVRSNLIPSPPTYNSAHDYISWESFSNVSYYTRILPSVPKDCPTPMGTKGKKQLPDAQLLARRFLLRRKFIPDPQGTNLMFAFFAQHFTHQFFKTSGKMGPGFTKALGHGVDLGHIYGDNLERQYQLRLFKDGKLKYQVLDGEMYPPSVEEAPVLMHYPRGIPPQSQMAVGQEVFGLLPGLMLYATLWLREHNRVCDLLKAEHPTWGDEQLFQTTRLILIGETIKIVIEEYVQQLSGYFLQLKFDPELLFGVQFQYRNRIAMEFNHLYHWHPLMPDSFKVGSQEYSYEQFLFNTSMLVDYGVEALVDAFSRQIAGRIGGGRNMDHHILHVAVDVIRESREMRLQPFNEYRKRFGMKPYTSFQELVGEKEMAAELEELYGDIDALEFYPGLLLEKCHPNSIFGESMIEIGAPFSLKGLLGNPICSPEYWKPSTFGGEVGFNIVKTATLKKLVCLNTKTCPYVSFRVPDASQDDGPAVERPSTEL

Thromboxane A2 receptor [7] = biological target: T4, Thromboxane A2 receptor (Homo sapiens, UniProt P21731); type: functional, cell-based
T4 sequence (P21731 whole entry): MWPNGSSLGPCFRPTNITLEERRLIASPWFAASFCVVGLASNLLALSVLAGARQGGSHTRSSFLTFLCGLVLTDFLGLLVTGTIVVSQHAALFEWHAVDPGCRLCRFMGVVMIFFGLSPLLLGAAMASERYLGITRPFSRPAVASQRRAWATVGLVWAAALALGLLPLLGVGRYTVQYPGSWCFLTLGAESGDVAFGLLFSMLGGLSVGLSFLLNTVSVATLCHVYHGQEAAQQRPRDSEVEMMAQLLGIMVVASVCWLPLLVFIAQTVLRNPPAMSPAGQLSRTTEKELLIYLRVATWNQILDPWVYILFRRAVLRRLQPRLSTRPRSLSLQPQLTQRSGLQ

Thromboxane A2 receptor [8] = biological target: T4, Thromboxane A2 receptor; type: functional, cell-based; remark: listed apart in the source
Further: assay procedure not described here.

Chain of Bile salt export pump (O95342 whole entry): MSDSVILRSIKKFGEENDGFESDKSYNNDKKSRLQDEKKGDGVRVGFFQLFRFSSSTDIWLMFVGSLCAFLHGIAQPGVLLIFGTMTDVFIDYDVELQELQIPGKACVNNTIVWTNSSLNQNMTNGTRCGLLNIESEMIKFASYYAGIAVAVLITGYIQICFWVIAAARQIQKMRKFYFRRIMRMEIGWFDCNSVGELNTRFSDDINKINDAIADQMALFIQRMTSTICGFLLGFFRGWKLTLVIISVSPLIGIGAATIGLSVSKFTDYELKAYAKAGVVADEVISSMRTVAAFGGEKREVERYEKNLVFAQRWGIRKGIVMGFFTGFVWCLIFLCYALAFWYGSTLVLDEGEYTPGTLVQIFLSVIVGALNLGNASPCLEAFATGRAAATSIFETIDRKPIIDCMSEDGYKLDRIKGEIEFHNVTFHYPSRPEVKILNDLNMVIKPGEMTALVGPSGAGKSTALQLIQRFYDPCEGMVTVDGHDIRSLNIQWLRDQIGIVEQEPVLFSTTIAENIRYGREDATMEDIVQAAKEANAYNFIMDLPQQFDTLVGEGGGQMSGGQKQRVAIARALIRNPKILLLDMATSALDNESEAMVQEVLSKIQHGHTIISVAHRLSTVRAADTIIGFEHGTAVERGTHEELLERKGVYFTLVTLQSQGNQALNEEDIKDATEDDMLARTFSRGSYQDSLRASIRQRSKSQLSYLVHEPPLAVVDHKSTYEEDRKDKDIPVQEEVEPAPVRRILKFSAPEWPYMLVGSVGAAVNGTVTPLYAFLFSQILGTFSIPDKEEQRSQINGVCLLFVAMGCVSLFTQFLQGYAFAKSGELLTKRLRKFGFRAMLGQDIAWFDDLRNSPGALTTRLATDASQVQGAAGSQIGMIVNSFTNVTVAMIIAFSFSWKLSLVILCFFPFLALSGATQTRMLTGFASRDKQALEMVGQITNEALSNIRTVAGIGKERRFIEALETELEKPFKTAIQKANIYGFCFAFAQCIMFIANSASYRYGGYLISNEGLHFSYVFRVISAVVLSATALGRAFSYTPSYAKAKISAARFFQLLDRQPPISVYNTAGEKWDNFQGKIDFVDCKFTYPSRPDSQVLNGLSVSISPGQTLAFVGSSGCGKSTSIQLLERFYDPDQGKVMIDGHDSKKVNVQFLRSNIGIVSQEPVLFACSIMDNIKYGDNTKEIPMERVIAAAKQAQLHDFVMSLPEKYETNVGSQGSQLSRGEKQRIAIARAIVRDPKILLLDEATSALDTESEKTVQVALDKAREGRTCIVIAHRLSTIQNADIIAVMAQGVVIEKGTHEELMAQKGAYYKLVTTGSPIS

Row | Structure (SMILES) | AC50 (Bile salt export pump) [µM] | AC50 [1] [µM] | AC50 (Histamine H3 receptor) [µM] | AC50 [2] [µM] | AC50 [3] [µM] | AC50 [4] [µM] | AC50 (Mu-type opioid receptor) [µM] | AC50 [5] [µM] | AC50 (Progesterone receptor) [µM] | AC50 [6] [µM] | AC50 (Thromboxane A2 receptor [7]) [µM] | AC50 (Thromboxane A2 receptor [8]) [µM]
1 | Cc1ccccc1C(=O)Nc1ccc(C(=O)N2CCCC(N(C)C)c3ccccc32)cc1 (stereo unspecified) [MOZAVAPTAN] | 14 | > 30 | > 30 | 5.8 | > 30 | > 30 | 2.48 | > 30 | > 30 | > 30 | > 30 | > 30
2 | C[N+](C)(C)C[C@H](O)CC(=O)[O-] [LEVOCARNITINE] | > 300 | > 30 | > 30 | > 30 | > 30 | > 30 | > 30 | > 30 | > 30 | > 30 | > 30 | > 30
3 | CC(C)C[C@H](NC(=O)CNC(=O)c1cc(Cl)ccc1Cl)B(O)O [IXAZOMIB] | > 300 | > 30 | > 30 | > 30 | > 30 | > 30 | > 30 | > 30 | > 30 | > 30 | > 30 | > 30
4 | O=C(O)c1cc(/N=N/c2ccc(O)c(C(=O)O)c2)ccc1O [OLSALAZINE] | > 300 | > 30 | > 30 | > 30 | > 30 | > 30 | > 30 | > 30 | > 30 | > 30 | > 30 | > 30
5 | CC(C)(O)CNc1nc(Nc2ccnc(C(F)(F)F)c2)nc(-c2cccc(C(F)(F)F)n2)n1 [ENASIDENIB] | 5.3 | > 30 | > 30 | > 30 | > 30 | > 30 | 21.5 | > 30 | > 30 | 14.1 | > 30 | 7.09
6 | O=C(O)COc1ccc(C(=O)c2cccs2)c(Cl)c1Cl | > 300 | > 30 | > 30 | > 30 | > 30 | > 30 | > 30 | > 30 | > 30 | > 30 | > 30 | > 30
7 | CCCN(CCC)C(=O)Cc1c(-c2ccc(Cl)cc2)nc2ccc(Cl)cn12 [ALPIDEM] | 4.8 | > 30 | > 30 | > 30 | > 30 | 14.8 | 15.5 | > 30 | > 30 | > 30 | > 30 | > 10
8 | COc1cc2nccc(Oc3ccc(NC(=O)C4(C(=O)Nc5ccc(F)cc5)CC4)cc3)c2cc1OC [CABOZANTINIB] | 8.8 | 9.32 | > 30 | > 30 | > 30 | 8.3 | > 30 | 27.9 | > 10 | > 30 | > 30 | 17.5
9 | CCCC(CCC)C(=O)O [VALPROIC ACID] | > 300 | > 30 | > 30 | > 30 | > 30 |  | > 30 | > 30 | > 30 | > 30 | > 30 | > 30
10 | CCOC(=O)C1=C[C@@H](OC(CC)CC)[C@H](NC(C)=O)[C@@H](N)C1 [OSELTAMIVIR] | > 300 | > 30 | > 30 | > 30 | > 30 | > 30 | > 30 | > 30 | > 30 | > 30 | > 30 | > 30
11 | OC[C@H]1O[C@@H](c2ccc(Cl)c(Cc3ccc(O[C@H]4CCOC4)cc3)c2)[C@H](O)[C@@H](O)[C@@H]1O [EMPAGLIFLOZIN] | > 300 | > 30 | > 30 | > 30 | > 30 | > 30 | > 30 | > 30 | > 30 | > 30 | > 30 | > 30
12 | OC[C@@H](O)[C@@H](O)[C@H](O)[C@@H](O)CO [SORBITOL] | > 300 | > 30 | > 30 | > 30 | > 30 | > 30 | > 30 | > 30 | > 30 | > 30 | > 30 | > 30
13 | C[C@@H]1C[C@H]2[C@@H]3CCC4=CC(=O)C=C[C@]4(C)[C@@]3(Cl)[C@@H](O)C[C@]2(C)[C@@]1(OC(=O)c1ccco1)C(=O)CCl [MOMETASONE FUROATE] | 2.4 | > 30 | > 30 | > 30 | > 30 | > 30 | > 30 | > 30 |  | > 30 | > 30 | > 30
14 | Cc1onc(-c2ccccc2)c1C(=O)N[C@@H]1C(=O)N2[C@@H]1SC(C)(C)[C@@H]2C(=O)O [OXACILLIN] | 220 | > 30 | > 30 | > 30 | > 30 | > 30 | > 30 | > 30 | > 30 | > 30 | > 30 | > 30
